Results taken from paper PMC3961306, “Comparison of the Cancer Gene Targeting and Biochemical Selectivities of All Targeted Kinase Inhibitors Approved for Clinical Use” (PLoS ONE, 2014).

Tests used:
Assay in all cases: Kinase profiling in a biochemical assay panel (mobility shift assays and ELISA), %-inhibition at 1 μM; selectivity entropy
[1] = target: panel of more than 300 wild-type and mutant kinases (313 kinase panel) (Homo sapiens, UniProt P50750)
[2] = target: panel of more than 300 wild-type and mutant kinases (313 kinase panel) (Homo sapiens, UniProt Q13882)
panel of more than 300 wild-type and mutant kinases (313 kinase panel) (Homo sapiens, UniProt Q13882), sequence (Q13882 whole entry, change not shown): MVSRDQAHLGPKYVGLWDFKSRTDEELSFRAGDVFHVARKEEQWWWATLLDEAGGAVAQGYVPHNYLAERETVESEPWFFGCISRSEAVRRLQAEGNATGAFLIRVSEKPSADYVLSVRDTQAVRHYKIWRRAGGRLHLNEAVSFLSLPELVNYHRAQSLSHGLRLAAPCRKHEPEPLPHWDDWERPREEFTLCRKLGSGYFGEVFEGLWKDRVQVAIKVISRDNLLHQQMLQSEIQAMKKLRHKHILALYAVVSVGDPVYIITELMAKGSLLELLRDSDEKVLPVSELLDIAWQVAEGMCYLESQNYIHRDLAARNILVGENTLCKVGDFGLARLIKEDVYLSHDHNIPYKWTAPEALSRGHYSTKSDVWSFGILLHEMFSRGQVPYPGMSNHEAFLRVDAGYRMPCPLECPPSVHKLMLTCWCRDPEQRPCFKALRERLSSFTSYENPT

[3] = target: panel of more than 300 wild-type and mutant kinases (313 kinase panel) (Homo sapiens, UniProt P19525)
[4] = target: T1, panel of more than 300 wild-type and mutant kinases (313 kinase panel) (Homo sapiens, UniProt O60285)
T1 sequence (O60285 1-661): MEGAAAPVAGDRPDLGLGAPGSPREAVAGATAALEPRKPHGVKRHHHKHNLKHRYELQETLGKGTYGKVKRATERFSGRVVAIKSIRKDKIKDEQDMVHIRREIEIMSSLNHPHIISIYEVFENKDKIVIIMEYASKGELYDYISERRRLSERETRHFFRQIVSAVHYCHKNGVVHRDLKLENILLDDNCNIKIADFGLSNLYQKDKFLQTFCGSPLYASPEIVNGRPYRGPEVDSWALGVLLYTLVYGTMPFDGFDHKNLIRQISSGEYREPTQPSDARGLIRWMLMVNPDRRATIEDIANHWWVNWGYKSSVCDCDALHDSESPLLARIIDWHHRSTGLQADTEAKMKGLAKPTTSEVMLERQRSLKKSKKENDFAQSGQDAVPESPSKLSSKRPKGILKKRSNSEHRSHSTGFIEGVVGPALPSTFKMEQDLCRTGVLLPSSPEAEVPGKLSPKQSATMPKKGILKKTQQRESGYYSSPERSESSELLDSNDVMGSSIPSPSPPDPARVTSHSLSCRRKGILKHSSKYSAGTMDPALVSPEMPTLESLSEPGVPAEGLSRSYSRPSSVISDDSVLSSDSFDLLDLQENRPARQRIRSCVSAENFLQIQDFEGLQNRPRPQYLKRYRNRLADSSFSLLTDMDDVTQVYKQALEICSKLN

[5] = target: panel of more than 300 wild-type and mutant kinases (313 kinase panel) (Homo sapiens, UniProt Q16620)
[6] = target: panel of more than 300 wild-type and mutant kinases (313 kinase panel) (Homo sapiens, UniProt P22455, V550E); settings: kinase FGFR4(V550E); compound at 1 μM
panel of more than 300 wild-type and mutant kinases (313 kinase panel) (Homo sapiens, UniProt P22455, V550E), sequence (P22455 22-802 V550E): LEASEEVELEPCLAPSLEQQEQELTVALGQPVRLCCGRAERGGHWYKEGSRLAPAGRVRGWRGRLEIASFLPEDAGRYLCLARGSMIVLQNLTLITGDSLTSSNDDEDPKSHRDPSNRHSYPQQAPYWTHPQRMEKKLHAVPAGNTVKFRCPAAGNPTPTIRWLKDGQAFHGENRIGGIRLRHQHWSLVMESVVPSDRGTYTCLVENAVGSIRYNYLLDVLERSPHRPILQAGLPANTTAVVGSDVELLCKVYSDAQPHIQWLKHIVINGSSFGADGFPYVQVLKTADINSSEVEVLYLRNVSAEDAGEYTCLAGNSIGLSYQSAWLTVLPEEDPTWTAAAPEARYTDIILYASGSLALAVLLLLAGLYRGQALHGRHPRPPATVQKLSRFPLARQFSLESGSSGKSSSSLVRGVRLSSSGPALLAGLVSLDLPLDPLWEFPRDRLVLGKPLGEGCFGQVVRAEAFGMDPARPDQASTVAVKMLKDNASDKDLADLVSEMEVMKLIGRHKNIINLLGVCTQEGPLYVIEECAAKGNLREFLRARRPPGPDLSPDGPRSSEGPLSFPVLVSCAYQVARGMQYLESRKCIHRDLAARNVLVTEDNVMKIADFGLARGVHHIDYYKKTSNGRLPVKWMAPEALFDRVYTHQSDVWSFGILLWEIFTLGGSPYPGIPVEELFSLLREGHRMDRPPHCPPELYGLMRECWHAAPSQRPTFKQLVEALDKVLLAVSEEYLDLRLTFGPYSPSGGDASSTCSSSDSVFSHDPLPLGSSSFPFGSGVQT

[7] = target: panel of more than 300 wild-type and mutant kinases (313 kinase panel) (Homo sapiens, UniProt Q15208)
panel of more than 300 wild-type and mutant kinases (313 kinase panel) (Homo sapiens, UniProt Q15208), sequence (Q15208 whole entry, change not shown): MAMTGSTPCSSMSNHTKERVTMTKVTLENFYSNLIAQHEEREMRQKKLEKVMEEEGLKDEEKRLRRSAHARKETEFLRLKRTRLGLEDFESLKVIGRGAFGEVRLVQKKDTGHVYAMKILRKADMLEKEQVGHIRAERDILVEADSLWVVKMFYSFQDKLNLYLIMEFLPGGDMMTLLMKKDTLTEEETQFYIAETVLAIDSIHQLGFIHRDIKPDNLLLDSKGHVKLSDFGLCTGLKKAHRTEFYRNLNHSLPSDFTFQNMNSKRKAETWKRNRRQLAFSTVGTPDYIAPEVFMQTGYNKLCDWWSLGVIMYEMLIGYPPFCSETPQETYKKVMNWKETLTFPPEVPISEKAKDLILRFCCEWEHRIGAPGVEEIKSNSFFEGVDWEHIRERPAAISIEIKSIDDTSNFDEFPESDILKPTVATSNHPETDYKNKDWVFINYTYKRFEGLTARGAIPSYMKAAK

[8] = target: panel of more than 300 wild-type and mutant kinases (313 kinase panel) (Homo sapiens, UniProt Q02779)
panel of more than 300 wild-type and mutant kinases (313 kinase panel) (Homo sapiens, UniProt Q02779), sequence (Q02779 whole entry, change not shown): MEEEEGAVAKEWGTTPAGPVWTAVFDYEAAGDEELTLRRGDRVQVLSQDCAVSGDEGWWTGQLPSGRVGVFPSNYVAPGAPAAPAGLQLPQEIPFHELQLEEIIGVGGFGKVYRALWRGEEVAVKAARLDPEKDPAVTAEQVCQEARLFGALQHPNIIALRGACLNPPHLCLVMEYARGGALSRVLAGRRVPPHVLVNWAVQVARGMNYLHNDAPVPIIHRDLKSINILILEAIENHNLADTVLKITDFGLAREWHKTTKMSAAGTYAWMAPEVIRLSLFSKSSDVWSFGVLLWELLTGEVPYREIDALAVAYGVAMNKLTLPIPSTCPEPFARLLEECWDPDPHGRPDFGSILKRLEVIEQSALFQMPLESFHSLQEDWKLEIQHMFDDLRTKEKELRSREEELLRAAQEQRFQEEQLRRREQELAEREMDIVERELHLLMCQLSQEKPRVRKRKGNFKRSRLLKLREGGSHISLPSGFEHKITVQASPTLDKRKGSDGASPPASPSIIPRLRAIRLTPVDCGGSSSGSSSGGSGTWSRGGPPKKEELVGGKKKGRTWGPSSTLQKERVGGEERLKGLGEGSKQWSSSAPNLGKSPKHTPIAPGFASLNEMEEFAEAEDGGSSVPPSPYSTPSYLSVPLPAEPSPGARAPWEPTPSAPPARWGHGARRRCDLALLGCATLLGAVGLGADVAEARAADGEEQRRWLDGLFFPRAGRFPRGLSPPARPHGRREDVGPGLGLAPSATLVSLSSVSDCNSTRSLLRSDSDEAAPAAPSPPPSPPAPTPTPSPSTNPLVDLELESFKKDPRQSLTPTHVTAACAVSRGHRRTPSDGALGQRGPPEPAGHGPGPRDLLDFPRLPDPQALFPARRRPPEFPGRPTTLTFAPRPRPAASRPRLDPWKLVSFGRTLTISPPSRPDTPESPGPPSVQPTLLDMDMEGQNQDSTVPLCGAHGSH

[9] = target: panel of more than 300 wild-type and mutant kinases (313 kinase panel) (Homo sapiens, UniProt Q00526)
panel of more than 300 wild-type and mutant kinases (313 kinase panel) (Homo sapiens, UniProt Q00526), sequence (Q00526 whole entry, change not shown): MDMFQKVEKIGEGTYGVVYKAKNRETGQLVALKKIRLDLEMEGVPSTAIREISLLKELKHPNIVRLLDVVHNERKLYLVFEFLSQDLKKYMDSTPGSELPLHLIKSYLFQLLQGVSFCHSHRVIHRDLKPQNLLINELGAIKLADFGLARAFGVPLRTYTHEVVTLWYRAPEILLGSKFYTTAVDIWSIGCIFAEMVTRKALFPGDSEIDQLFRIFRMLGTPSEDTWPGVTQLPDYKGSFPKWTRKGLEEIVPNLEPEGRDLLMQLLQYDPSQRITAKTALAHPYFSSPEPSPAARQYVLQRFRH

[10] = target: panel of more than 300 wild-type and mutant kinases (313 kinase panel) (Homo sapiens, UniProt P28482)
[11] = target: T2, panel of more than 300 wild-type and mutant kinases (313 kinase panel) (Homo sapiens, UniProt P54762)
T2 sequence (P54762 18-984): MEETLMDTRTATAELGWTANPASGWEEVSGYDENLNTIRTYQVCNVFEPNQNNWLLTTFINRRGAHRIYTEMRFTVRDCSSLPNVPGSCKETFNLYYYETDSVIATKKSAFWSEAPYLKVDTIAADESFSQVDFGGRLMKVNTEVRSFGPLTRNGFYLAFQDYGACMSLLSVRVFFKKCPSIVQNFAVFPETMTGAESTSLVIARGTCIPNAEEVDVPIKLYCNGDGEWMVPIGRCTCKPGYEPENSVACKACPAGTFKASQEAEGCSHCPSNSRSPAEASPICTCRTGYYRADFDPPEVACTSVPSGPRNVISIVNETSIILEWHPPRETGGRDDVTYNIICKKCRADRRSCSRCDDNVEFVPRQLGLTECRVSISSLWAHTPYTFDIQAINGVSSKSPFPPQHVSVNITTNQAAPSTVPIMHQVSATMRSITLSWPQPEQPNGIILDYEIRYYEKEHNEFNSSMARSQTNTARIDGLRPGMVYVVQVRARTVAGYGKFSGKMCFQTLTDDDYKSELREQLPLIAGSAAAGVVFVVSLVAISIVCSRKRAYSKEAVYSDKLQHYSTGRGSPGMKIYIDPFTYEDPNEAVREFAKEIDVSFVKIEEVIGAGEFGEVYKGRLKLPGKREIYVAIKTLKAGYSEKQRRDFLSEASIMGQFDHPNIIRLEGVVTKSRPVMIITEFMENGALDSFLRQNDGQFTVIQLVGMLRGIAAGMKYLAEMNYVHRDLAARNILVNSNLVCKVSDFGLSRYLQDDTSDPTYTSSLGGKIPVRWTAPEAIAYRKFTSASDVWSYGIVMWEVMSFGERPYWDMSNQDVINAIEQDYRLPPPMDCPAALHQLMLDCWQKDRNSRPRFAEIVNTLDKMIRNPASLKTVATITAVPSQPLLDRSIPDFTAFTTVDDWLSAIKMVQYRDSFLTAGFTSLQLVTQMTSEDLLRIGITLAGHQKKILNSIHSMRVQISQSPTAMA

[12] = kinase CDK9/CycT1, 1 μM compound
[13] = kinase CDK3/CycE1, 1 μM compound

| SMILES | %-inhibition, CDK9/CycT1 [1, 12] | %-inhibition, BRK ([2]; kinase BRK, 1 μM compound) | %-inhibition of PKR ([3]; kinase PKR, 1 μM) | %-inhibition of NuaK1 ([4]; kinase NuaK1, 1 μM) | %-inhibition of TRKB ([5]; kinase TRKB, 1 μM) | %-inhibition of FGFR4(V550E) [6] | %-inhibition of MLK2 ([8]; kinase MLK2, 1 μM) | %-inhibition of Erk2 ([10]; kinase Erk2, compound at 1 μM) | %-inhibition of NDR1 ([7]; kinase NDR1, 1 μM) | %-inhibition of EPHB1 ([11]; kinase EPHB1, compound at 1 μM) | %-inhibition, CDK3/CycE1 [9, 13] | other results |
| --- | --- | --- | --- | --- | --- | --- | --- | --- | --- | --- | --- | --- |
| COc1cc(Nc2c(C#N)cnc3cc(OCCCN4CCN(C)CC4)c(OC)cc23)c(Cl)cc1Cl [bosutinib] | -4.22% | 35% | -13% | 84% | 62% | -3.46% | 58% |  |  |  |  | %-inhibition of NDR1 ([7]; 1 µM): -3.49%; %-inhibition, CDK3/CycE1 ([9]; 1 µM): 1% |
| COc1cc2nccc(Oc3ccc(NC(=O)C4(C(=O)Nc5ccc(F)cc5)CC4)cc3)c2cc1OC [cabozantinib] | -5.37% |  | -4.3% | 7% |  | -4% | 6.67% | -8% | -5.4% | 95% | -2.84% |  |
| CC(C)(C)c1nc(-c2cccc(NS(=O)(=O)c3c(F)cccc3F)c2F)c(-c2ccnc(N)n2)s1 [dabrafenib] |  | 98% |  | 7% | 86% | -5% | 47% | -8% | -0.891% | 12% |  |  |
| Cc1nc(Nc2ncc(C(=O)Nc3c(C)cccc3Cl)s2)cc(N2CCN(CCO)CC2)n1 [dasatinib] | -0.25% |  | 3% |  |  |  |  |  | -1.85% |  | 2.27% |  |
| C#Cc1cccc(Nc2ncnc3cc(OCCOC)c(OCCOC)cc23)c1 [erlotinib] |  |  |  |  |  |  |  |  |  |  |  | %-inhibition of Erk2 ([10]; 1 µM): -2%; %-inhibition, CDK9/CycT1 ([1]; 1 µM): 2.63%; %-inhibition, BRK ([2]; 1 µM): 47%; %-inhibition of PKR ([3]; 1 µM): 22%; %-inhibition of NuaK1 ([4]; 1 µM): 12%; %-inhibition of TRKB ([5]; 1 µM): 0.183%; %-inhibition of NDR1 ([7]; 1 µM): 3.48%; %-inhibition of EPHB1 ([11]; 1 µM): 22%; %-inhibition of MLK2 ([8]; 1 µM): -1.75%; %-inhibition, CDK3/CycE1 ([9]; 1 µM): 7% |
| CS(=O)(=O)CCNCc1ccc(-c2ccc3ncnc(Nc4ccc(OCc5cccc(F)c5)c(Cl)c4)c3c2)o1 [lapatinib] |  |  | -0.192% | 3% | -10% |  | 1.78% | -7% | -0.543% |  | 2.84% | %-inhibition, CDK9/CycT1 ([1]; 1 µM): 0.501%; %-inhibition, BRK ([2]; 1 µM): 63%; %-inhibition of EPHB1 ([11]; 1 µM): -0.743% |
| Cc1cn(-c2cc(NC(=O)c3ccc(C)c(Nc4nccc(-c5cccnc5)n4)c3)cc(C(F)(F)F)c2)cn1 [nilotinib] | 9% | 75% |  |  |  |  | -1.7% | 1.49% | -3% | 72% | -1.6% | %-inhibition of PKR ([3]; 1 µM): 0%; %-inhibition of NuaK1 ([4]; 1 µM): -17%; %-inhibition of TRKB ([5]; 1 µM): 56% |
| Cc1ccc(Nc2nccc(N(C)c3ccc4c(C)n(C)nc4c3)n2)cc1S(N)(=O)=O [pazopanib] | 31% | 70% |  | 73% |  |  | 18% | -0.636% | 2.49% | 27% | 0.931% |  |
| Cc1ccc(C(=O)Nc2ccc(CN3CCN(C)CC3)c(C(F)(F)F)c2)cc1C#Cc1cnc2cccnn12 [ponatinib] | 16% | 97% | 19% | 5% | 100% | -1.79% | 39% |  |  |  | 20% |  |
| CCN(CC)CCNC(=O)c1c(C)[nH]c(/C=C2\C(=O)Nc3ccc(F)cc32)c1C [sunitinib] |  |  |  |  |  |  |  |  | 9% |  |  |  |
| COc1cc2c(Nc3ccc(Br)cc3F)ncnc2cc1OCC1CCN(C)CC1 [vandetanib] |  | 100% | -1.09% | 16% | 26% | -0.358% | 12% | -4% | -9% | 96% | -13% |  |
